Numbered stars: 1 amine (or outer) side, 2 acyl side, 3 side chain; on linkers, the order of the positions; unused ones are H or OH. Bridge positions count the residues as written; N and C are the ends. Square brackets hold non-standard residues; d marks the D form. Peptide text beside a SMILES is read from it. * marks the point of attachment. Phe(4-COOH) = N[C@@H](Cc1ccc(C(=O)O)cc1)C(=O)O; Bip = N[C@@H](Cc1ccc(-c2ccccc2)cc1)C(=O)O; Phe(3-Me) = Cc1cccc(C[C@H](N)C(=O)O)c1; γGlu = O=C(O)[C@H](CCC(=O)[*:2])N[*:1]; βAsp = O=C(O)[C@H](CC(=O)[*:2])N[*:1]; 4Pal = N[C@@H](Cc1ccncc1)C(=O)O; Cha = N[C@@H](CC1CCCCC1)C(=O)O; Cit = NC(=O)NCCC[C@H](N)C(=O)O; Carboxymethyl = O=C(O)C*; Orn = NCCC[C@H](N)C(=O)O; Aun = NCCCCCCCCCCC(=O)O; Dab = NCC[C@H](N)C(=O)O; Dap = NC[C@H](N)C(=O)O; AEEA = NCCOCCOCC(=O)O
Molecular target: T1, PD-1/PD-L1 interaction (PE-labeled human PD-L1-Ig binding to Jurkat cell line over-expressing human PD-1) (Homo sapiens, UniProt Q15116)
T1 construct: expressed in transfected cells; host or cells: Jurkat
T1 sequence (Q15116 25-288): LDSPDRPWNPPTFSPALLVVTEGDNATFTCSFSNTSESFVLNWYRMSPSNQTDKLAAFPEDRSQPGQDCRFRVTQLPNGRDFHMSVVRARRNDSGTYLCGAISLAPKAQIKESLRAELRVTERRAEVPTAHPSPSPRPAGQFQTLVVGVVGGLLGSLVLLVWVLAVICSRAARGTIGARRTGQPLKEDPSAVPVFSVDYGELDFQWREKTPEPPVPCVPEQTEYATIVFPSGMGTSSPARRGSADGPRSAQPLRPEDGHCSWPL
Assay: Jurkat-PD-1 Cell Binding High-Content Screening Assay (CBA)
Type: cell-based
Conditions: Jurkat cell line over-expressing human PD-1; PE-labeled PD-L1-Ig 20 nM final; read-out: Jurkat hPD1-PDL1 IC50
Protocol: Example 2: Jurkat-PD-1 Cell Binding High-Content Screening Assay (CBA)
Phycoerythrin (PE) was covalently linked to the Ig epitope tag of human PD-L1-Ig and fluorescently-labeled PD-L1-Ig was used for binding studies with a Jurkat cell line over-expressing human PD-1 (Jurkat-PD-1). Briefly, 8×10^3 Jurkat-hPD-1 cells were seeded into 384 well plates in 20 μl of DMEM supplemented with 10% fetal calf serum. 100 nl of compound was added to cells followed by incubation at 37° C. for 2 h. Then, 5 μl of PE-labeled PD-L1-Ig (20 nM final), diluted in DMEM supplemented with 10% fetal calf serum. After 1 hour incubation, cells were fixed with 4% paraformaldehyde in dPBS containing 10 μg/ml Hoechst 33342 and then washed 3× in 100 μl dPBS. Data was collected and processed using a Cell Insight NXT High Content Imager and associated software.

Row | IC50 [nM] | SMILES
1 | 6.8 | Cc1cccc(C[C@@H]2NC(=O)[C@H](CC(=O)O)NC(=O)[C@H](Cc3ccc(OCC(=O)O)cc3)NC(=O)[C@H](CN)NC(=O)CSC[C@@H](C(=O)NCCOCCOCC(=O)N[C@@H](CC(=O)NCCCCCCCCCCC(=O)O)C(=O)O)NC(=O)[C@H]([C@@H](C)O)NC(=O)[C@H](C(C)C)NC(=O)[C@H](CC3CCCCC3)NC(=O)[C@H](CCN)NC(=O)[C@@H](CC(C)C)NC(=O)[C@H](CCCN)NC(=O)[C@H](CCCNC(N)=O)NC(=O)[C@H](Cc3ccc(-c4ccccc4)cc3)NC(=O)[C@H](C(C)C)NC2=O)c1 [Compound 1031] ({CH2CO}-[Dap]Y(Carboxymethyl)D[Phe(3-Me)]V[Bip][Cit][Orn][dL][Dab][Cha]VTC[AEEA][βAsp][Aun]-OH; thioether N-14)
2 | 6.1 | Cc1cccc(C[C@@H]2NC(=O)[C@H](CC(=O)O)NC(=O)[C@H](Cc3ccc(OCC(=O)O)cc3)NC(=O)[C@H](CN)NC(=O)CSC[C@@H](C(=O)NCCOCCOCC(=O)N[C@@H](CC(=O)O)C(=O)NCCCCCCCCCCC(=O)O)NC(=O)[C@H]([C@@H](C)O)NC(=O)[C@H](C(C)C)NC(=O)[C@H](CC3CCCCC3)NC(=O)[C@H](CCN)NC(=O)[C@@H](CC(C)C)NC(=O)[C@H](CCCN)NC(=O)[C@H](CCCNC(N)=O)NC(=O)[C@H](Cc3ccc(-c4ccccc4)cc3)NC(=O)[C@H](C(C)C)NC2=O)c1 [Compound 1032] ({CH2CO}-[Dap]Y(Carboxymethyl)D[Phe(3-Me)]V[Bip][Cit][Orn][dL][Dab][Cha]VTC[AEEA]D[Aun]-OH; thioether N-14)
3 | 8.7 | Cc1cccc(C[C@@H]2NC(=O)[C@H](CC(=O)O)NC(=O)[C@H](Cc3ccc(OCC(=O)O)cc3)NC(=O)[C@H](CN)NC(=O)CSC[C@@H](C(=O)NCCOCCOCC(=O)N[C@@H](CCC(=O)O)C(=O)NCCCCCCCCCCC(=O)O)NC(=O)[C@H]([C@@H](C)O)NC(=O)[C@H](C(C)C)NC(=O)[C@H](CC3CCCCC3)NC(=O)[C@H](CCN)NC(=O)[C@@H](CC(C)C)NC(=O)[C@H](CCCN)NC(=O)[C@H](CCCNC(N)=O)NC(=O)[C@H](Cc3ccc(-c4ccccc4)cc3)NC(=O)[C@H](C(C)C)NC2=O)c1 [Compound 1033] ({CH2CO}-[Dap]Y(Carboxymethyl)D[Phe(3-Me)]V[Bip][Cit][Orn][dL][Dab][Cha]VTC[AEEA]E[Aun]-OH; thioether N-14)
4 | 6.6 | Cc1cccc(C[C@@H]2NC(=O)[C@H](CC(=O)O)NC(=O)[C@H](Cc3ccc(OCC(=O)O)cc3)NC(=O)[C@H](CN)NC(=O)CSC[C@@H](C(=O)N[C@@H](CCC(=O)NCCOCCOCC(=O)NCCCCCCCCCCC(=O)O)C(=O)O)NC(=O)[C@H]([C@@H](C)O)NC(=O)[C@H](C(C)C)NC(=O)[C@H](CC3CCCCC3)NC(=O)[C@H](CCN)NC(=O)[C@@H](CC(C)C)NC(=O)[C@H](CCCN)NC(=O)[C@H](CCCNC(N)=O)NC(=O)[C@H](Cc3ccc(-c4ccccc4)cc3)NC(=O)[C@H](C(C)C)NC2=O)c1 [Compound 1034] ({CH2CO}-[Dap]Y(Carboxymethyl)D[Phe(3-Me)]V[Bip][Cit][Orn][dL][Dab][Cha]VTC[γGlu][AEEA][Aun]-OH; thioether N-14)
5 | 9 | Cc1cccc(C[C@@H]2NC(=O)[C@H](CC(=O)O)NC(=O)[C@H](Cc3ccc(OCC(=O)O)cc3)NC(=O)[C@H](CN)NC(=O)CSC[C@@H](C(=O)N[C@@H](CC(=O)NCCOCCOCC(=O)NCCCCCCCCCCC(=O)O)C(=O)O)NC(=O)[C@H]([C@@H](C)O)NC(=O)[C@H](C(C)C)NC(=O)[C@H](CC3CCCCC3)NC(=O)[C@H](CCN)NC(=O)[C@@H](CC(C)C)NC(=O)[C@H](CCCN)NC(=O)[C@H](CCCNC(N)=O)NC(=O)[C@H](Cc3ccc(-c4ccccc4)cc3)NC(=O)[C@H](C(C)C)NC2=O)c1 [Compound 1035] ({CH2CO}-[Dap]Y(Carboxymethyl)D[Phe(3-Me)]V[Bip][Cit][Orn][dL][Dab][Cha]VTC[βAsp][AEEA][Aun]-OH; thioether N-14)
6 | 6.8 | Cc1cccc(C[C@@H]2NC(=O)[C@H](CC(=O)O)NC(=O)[C@H](Cc3ccc(OCC(=O)O)cc3)NC(=O)[C@H](CN)NC(=O)CSC[C@@H](C(=O)N[C@@H](CC(=O)O)C(=O)NCCOCCOCC(=O)NCCCCCCCCCCC(=O)O)NC(=O)[C@H]([C@@H](C)O)NC(=O)[C@H](C(C)C)NC(=O)[C@H](CC3CCCCC3)NC(=O)[C@H](CCN)NC(=O)[C@@H](CC(C)C)NC(=O)[C@H](CCCN)NC(=O)[C@H](CCCNC(N)=O)NC(=O)[C@H](Cc3ccc(-c4ccccc4)cc3)NC(=O)[C@H](C(C)C)NC2=O)c1 [Compound 1036] ({CH2CO}-[Dap]Y(Carboxymethyl)D[Phe(3-Me)]V[Bip][Cit][Orn][dL][Dab][Cha]VTCD[AEEA][Aun]-OH; thioether N-14)
7 | 7.6 | Cc1cccc(C[C@@H]2NC(=O)[C@H](CC(=O)O)NC(=O)[C@H](Cc3ccc(OCC(=O)O)cc3)NC(=O)[C@H](CN)NC(=O)CSC[C@@H](C(=O)N[C@@H](CCC(=O)O)C(=O)NCCOCCOCC(=O)NCCCCCCCCCCC(=O)O)NC(=O)[C@H]([C@@H](C)O)NC(=O)[C@H](C(C)C)NC(=O)[C@H](CC3CCCCC3)NC(=O)[C@H](CCN)NC(=O)[C@@H](CC(C)C)NC(=O)[C@H](CCCN)NC(=O)[C@H](CCCNC(N)=O)NC(=O)[C@H](Cc3ccc(-c4ccccc4)cc3)NC(=O)[C@H](C(C)C)NC2=O)c1 [Compound 1037] ({CH2CO}-[Dap]Y(Carboxymethyl)D[Phe(3-Me)]V[Bip][Cit][Orn][dL][Dab][Cha]VTCE[AEEA][Aun]-OH; thioether N-14)
8 | 20.8 | Cc1cccc(C[C@@H]2NC(=O)[C@H](CC(=O)O)NC(=O)[C@H](Cc3ccc(OCC(=O)O)cc3)NC(=O)[C@H](CN)NC(=O)CSC[C@@H](C(=O)NCCOCCOCC(=O)NCCCCCCCCCCC(=O)O)NC(=O)[C@H]([C@@H](C)O)NC(=O)[C@H](C(C)C)NC(=O)[C@H](CC3CCCCC3)NC(=O)[C@H](CCN)NC(=O)[C@@H](CC(C)C)NC(=O)[C@H](CCCN)NC(=O)[C@H](CCCNC(N)=O)NC(=O)[C@H](Cc3ccc(-c4ccccc4)cc3)NC(=O)[C@H](C(C)C)NC2=O)c1 [Compound 1038] ({CH2CO}-[Dap]Y(Carboxymethyl)D[Phe(3-Me)]V[Bip][Cit][Orn][dL][Dab][Cha]VTC[AEEA][Aun]-OH; thioether N-14)
9 | 11.9 | CC[C@H](C)[C@@H]1NC(=O)[C@H](Cc2ccc(-c3ccccc3)cc2)NC(=O)[C@H](C(C)C)NC(=O)[C@H](Cc2cccc(C)c2)NC(=O)[C@H](CC(=O)O)NC(=O)[C@H](Cc2ccc(C(=O)O)cc2)NC(=O)[C@H](Cc2ccncc2)NC(=O)CSC[C@@H](C(=O)N[C@@H](C)C(=O)N[C@@H](CCC(=O)O)C(=O)NCCCCCCCCCCC(=O)O)NC(=O)[C@H]([C@@H](C)O)NC(=O)[C@H](C(C)C)NC(=O)[C@H](CC2CCCCC2)NC(=O)[C@H](CCN)NC(=O)[C@@H](CC(C)C)NC(=O)[C@H](CCCN)NC1=O [Compound 1039]
10 | 52.9 | CC[C@H](C)[C@@H]1NC(=O)[C@H](Cc2ccc(-c3ccccc3)cc2)NC(=O)[C@H](C(C)C)NC(=O)[C@H](Cc2cccc(C)c2)NC(=O)[C@H](CC(=O)O)NC(=O)[C@H](Cc2ccc(C(=O)O)cc2)NC(=O)[C@H](Cc2ccncc2)NC(=O)CSC[C@@H](C(=O)N[C@@H](CCC(=O)O)C(=O)NCCCCCCCCCCC(=O)O)NC(=O)[C@H]([C@@H](C)O)NC(=O)[C@H](C(C)C)NC(=O)[C@H](CC2CCCCC2)NC(=O)[C@H](CCN)NC(=O)[C@@H](CC(C)C)NC(=O)[C@H](CCCN)NC1=O [Compound 1040] ({CH2CO}-[4Pal][Phe(4-COOH)]D[Phe(3-Me)]V[Bip]I[Orn][dL][Dab][Cha]VTCE[Aun]-OH; thioether N-14)
11 | 15.1 | CC[C@H](C)[C@@H]1NC(=O)[C@H](Cc2ccc(-c3ccccc3)cc2)NC(=O)[C@H](C(C)C)NC(=O)[C@H](Cc2cccc(C)c2)NC(=O)[C@H](CC(=O)O)NC(=O)[C@H](Cc2ccc(C(=O)O)cc2)NC(=O)[C@H](Cc2ccncc2)NC(=O)CSC[C@@H](C(=O)N[C@@H](C)C(=O)N[C@@H](CCC(=O)O)C(=O)NCC(=O)NCCCCCCCCCCC(=O)O)NC(=O)[C@H]([C@@H](C)O)NC(=O)[C@H](C(C)C)NC(=O)[C@H](CC2CCCCC2)NC(=O)[C@H](CCN)NC(=O)[C@@H](CC(C)C)NC(=O)[C@H](CCCN)NC1=O [Compound 1041]
12 | 15.3 | CC[C@H](C)[C@@H]1NC(=O)[C@H](Cc2ccc(-c3ccccc3)cc2)NC(=O)[C@H](C(C)C)NC(=O)[C@H](Cc2cccc(C)c2)NC(=O)[C@H](CC(=O)O)NC(=O)[C@H](Cc2ccc(C(=O)O)cc2)NC(=O)[C@H](Cc2ccncc2)NC(=O)CSC[C@@H](C(=O)N[C@@H](C)C(=O)N[C@@H](CC(=O)O)C(=O)NCC(=O)NCCCCCCCCCCC(=O)O)NC(=O)[C@H]([C@@H](C)O)NC(=O)[C@H](C(C)C)NC(=O)[C@H](CC2CCCCC2)NC(=O)[C@H](CCN)NC(=O)[C@@H](CC(C)C)NC(=O)[C@H](CCCN)NC1=O [Compound 1042]
13 | 15.6 | CC[C@H](C)[C@@H]1NC(=O)[C@H](Cc2ccc(-c3ccccc3)cc2)NC(=O)[C@H](C(C)C)NC(=O)[C@H](Cc2cccc(C)c2)NC(=O)[C@H](CC(=O)O)NC(=O)[C@H](Cc2ccc(C(=O)O)cc2)NC(=O)[C@H](Cc2ccncc2)NC(=O)CSC[C@@H](C(=O)N[C@@H](CC(=O)O)C(=O)NCCCCCCCCCCC(=O)O)NC(=O)[C@H]([C@@H](C)O)NC(=O)[C@H](C(C)C)NC(=O)[C@H](CC2CCCCC2)NC(=O)[C@H](CCN)NC(=O)[C@@H](CC(C)C)NC(=O)[C@H](CCCN)NC1=O [Compound 1043] ({CH2CO}-[4Pal][Phe(4-COOH)]D[Phe(3-Me)]V[Bip]I[Orn][dL][Dab][Cha]VTCD[Aun]-OH; thioether N-14)

Source: patent publication US20260022142A1, “MACROCYCLIC IMMUNOMODULATORS” (Bristol-Myers Squibb Company, priority 2022, published 2026)
